From patent US4332787A, “Assay for beta-adrenergic antagonists and antibody therefor” (The Massachusetts General Hospital, priority 1980, dated 1982)
Where two headings read alike, the source gives them in different places.

Key:
[1] = tested on: antibody (antiacebutolol amine immune serum); test: Competitive binding inhibition of 3H-(-)-propranolol to anti-acebutolol amine antibody (radioimmunoassay); parameters: species or system rabbit; conditions: for competitive inhibition of 3H-propranolol binding to the antibody: sera containing the drug
Experimental: Acebutolol amine having the formula: [drawing 3] was covalently linked to lysozyme. 150 mg of acebutolol amine was dissolved in 1.0 N HCl and was cooled to 0° C. in a salt ice bath. To this solution was added 1 cc of 0.5 M NaNO2 also at 0° C. and the resultant mixture was allowed to stand at 0° C. for 10 min. A mixture of 200 mg crystalline lysozyme in 15% aqueous sodium carbonate at 0° C. was added to 2.0 cc of the above mixture. […] The resultant product was dialyzed against phosphate buffered saline and the purified conjugate was frozen in dry ice-acetone and stored at -20° C. The product then was thawed and centrifuged for 10 min at 3000 rpm. The supernatant was recovered and mixed with Tris buffer, pH 7 at a concentration of 30 mg/ml.
Albino rabbits were immunized with this conjugate at monthly intervals for four months. Each rabbit received intracutaneous toepad injections of 0.5 mg of protein emulsified in complete Freund's adjuvant.
(§1) The assays were performed in triplicate. […] For each determination, an identical volume of preimmune serum was assayed as a control for antibody binding. […] After an incubation period of 1 hr at 25° C., 100 μl of goat-antirabbit 1 gG antiserum was added to each tube with 50 μl of normal rabbit 1 gG as a carrier for the precipitation. The tubes were again incubated at 25° C. for 30 min. The precipitates were washed twice in Tris buffer and spun in a Sorvall table-top centrifuge at 2,000 rpm×10 min. After the supernatant was decanted, the precipitates were dissolved in 1 ml of 1% sodium dodecyl sulfate. Bound radioactivity was counted in the presence of 10 ml of Aquasol-2 (New England Nuclear) in a Packard Tricarb liquid scintillation counter with a counting efficiency of 40%.
(§2) The assays to determine the competitive binding of potentially cross-reactive drugs were performed on sera obtained from patients on long-term maintenance with single drugs; digoxin, imipramine and alphamethyldopa, respectively.

beta-adrenergic receptor = conditions: metabolite of propranolol, result in words, cited from earlier work
[2] = result in words, cited from earlier work
[3] = tested on: exercise heart rate (patients); test: Cardiovascular stress testing of patients on oral propranolol, serum propranolol concentration vs. heart rate and blood pressure; type: in vivo, human
Experimental: The assays were performed in triplicate. […] The ^3 H-(-)-propranolol was obtained from New England Nuclear Corporation. […] The standard curve for the radioimmunoassay was derived from triplicate assay of pooled human serum containing varying amounts of added (±) propranolol HCl. For each determination, an identical volume of preimmune serum was assayed as a control for antibody binding. […] After an incubation period of 1 hr at 25° C., 100 μl of goat-antirabbit 1 gG antiserum was added to each tube with 50 μl of normal rabbit 1 gG as a carrier for the precipitation. The tubes were again incubated at 25° C. for 30 min. The precipitates were washed twice in Tris buffer and spun in a Sorvall table-top centrifuge at 2,000 rpm×10 min. After the supernatant was decanted, the precipitates were dissolved in 1 ml of 1% sodium dodecyl sulfate. Bound radioactivity was counted in the presence of 10 ml of Aquasol-2 (New England Nuclear) in a Packard Tricarb liquid scintillation counter with a counting efficiency of 40%.
All subjects were submitted to standard, graded exercise according to the Bruce protocol, and 36 of 54 patients attained at least Stage II of exertion (greater than 6 min of sustained exertion).

clinical = conditions: for half-life: human, in vivo, iv
Experimental: as §1, §2
To further document the reproducibility of the assay, each serum sample from a single subject was assayed in replicate fashion at dilutions of 1:2, 1:3 and 1:4 in pooled human serum.

## NC[C@H](O)c1ccc(O)c(O)c1 [(-)-norepinephrine]
[1]; result in words
  competitive inhibition of 3H-propranolol binding to the antibody: failed to produce significant competitive inhibition

## CC(C)NCC(O)COc1ccc(O)c2ccccc12 (stereo not drawn) [4-hydroxypropranolol]
beta-adrenergic receptor
  biological activity at the beta-adrenergic receptor: equipotent beta adrenergic receptor antagonist
beta-adrenergic receptor; listed as 4 OH-propranolol
  biological activity at the beta-adrenergic receptor: retains full biological activity
[1]; 3H-(-)-propranolol displacement from antibody, read-out: apparent KD (competitive binding inhibition)
  Kd: 10 nM
[2]
  detectability of metabolite in serum: detectable in serum only after the oral route of drug administration

## C[C@](N)(Cc1ccc(O)c(O)c1)C(=O)O [alpha methyldopa]
[1]; result in words
  competitive inhibition of 3H-propranolol binding to the antibody: failed to produce significant competitive inhibition

## CN(C)CCCN1c2ccccc2CCc2ccccc21 [imipramine]
[1]; result in words
  competitive inhibition of 3H-propranolol binding to the antibody: failed to produce significant competitive inhibition

## CC(C)NCC(O)COc1cccc2ccccc12 (racemic) [propranolol]
[3]; 54 patients, exercise, result in words
  correlation between increases in blood pressure or heart rate and serum concentration: lack of correlation
[3]; 54 patients, long-term oral propranolol, result in words
  relationship of basal heart rate to plasma concentration, response to exercise, or administered dose: failed to show any significant relationship
[3]; FIG. 3, linear regression analysis
  p of linear relationship between exercise response (percent of maximal predicted heart rate for age) and serum propranolol concentration: < 0.0005
[3]; adequately blocked patients, oral
  average daily dose in adequately blocked patients: 2.45 ± 2.89 mg/kg/day
[3]; human, in vivo
  p of difference in average daily dose, adequately vs. inadequately blocked patients: < 0.001
[3]; inadequately blocked patients, oral
  average daily dose in inadequately blocked patients: 1.14±0.62
[3]; serum level <250 ng/ml
  patients who achieved an exercise response of <67% of predicted: 3/33
[3]; serum level >250 ng/ml
  patients with exercise response consistent with adequate beta-adrenergic blockade: 10/16
[3]; study of 56 patients, result in words
  correlation of serum propranolol and heart rate response to maximal exercise: highly significant
[2]; oral administration
  conversion by the liver to 4 OH-propranolol: a significant fraction of the administered dose is converted by the liver to 4 OH-propranolol
[2]
  bio-availability: markedly variable bio-availibility
clinical; range of serum half-life observed in subjects
  half-life: 5 to 7.5 h
clinical; serum half-life
  half-life: ~7.5 h
clinical; single intravenous administration
  time the drug remains detectable in serum: six to twelve

## NCCc1ccc(O)c(O)c1 [dopamine]
[1]; result in words
  competitive inhibition of 3H-propranolol binding to the antibody: failed to produce significant competitive inhibition

## C[C@H]1O[C@@H](O[C@H]2[C@@H](O)C[C@H](O[C@H]3[C@@H](O)C[C@H](O[C@H]4CC[C@@]5(C)[C@H](CC[C@@H]6[C@@H]5C[C@@H](O)[C@]5(C)[C@@H](C7=CC(=O)OC7)CC[C@]65O)C4)O[C@@H]3C)O[C@@H]2C)C[C@H](O)[C@@H]1O [digoxin]
[1]; result in words
  competitive inhibition of 3H-propranolol binding to the antibody: failed to produce significant competitive inhibition

## CC(=O)c1ccc(N)cc1OCC(O)CNC(C)C (stereo not drawn) [acebutolol amine]
[1]; FIG. 1, result in words
  competitive binding inhibition curve compared with propranolol: yields a curve analogous to the displacement binding observed with propranolol
